From ChEMBL document CHEMBL1201862, “PubChem BioAssay data set” (2004)
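A five-concentration, 48-hour dose response in 96-well plates underlies each endpoint, interpolated linearly between surrounding concentrations. Abbreviation: GI50, concentration required for 50% inhibition of growth.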 The source made the active and inactive calls. No stated cut-off is given here; in the data, active = GI50 up to about 1.1 µM and inactive = higher.

Experiments:
Experiment in all cases: NCI tumour cell line growth inhibition, 48 h
[1] = system: UACC-257
[2] = system: SW-620
[3] = system: MDA-MB-435
[4] = system: NCI-H522
[5] = system: M14
[6] = system: EKVX
[7] = system: SF-268
[8] = system: HOP-92
[9] = system: 786-0
[10] = system: OVCAR-5
[11] = system: SF-539
[12] = system: SK-MEL-28
[13] = system: SR
[14] = system: COLO 205
[15] = system: MOLT-4
[16] = system: SNB-75
[17] = system: PC-3
[18] = system: MDA-N
[19] = system: RXF 393
[20] = system: HCT-15

Compound	GI50 [1]	GI50 [2]	GI50 [3]	GI50 [4]	GI50 [5]	GI50 [6]	GI50 [7]	GI50 [8]	GI50 [9]	GI50 [10]	GI50 [11]	GI50 [12]	GI50 [13]	GI50 [14]	GI50 [15]	GI50 [16]	GI50 [17]	GI50 [18]	GI50 [19]	GI50 [20] [µM]
N=c1oc2ccccc2cc1-c1nc2ccccc2c(=O)[nH]1	> 100 µM (inactive)	72.3 µM (inactive)	> 100 µM (inactive)	14.7 µM (inactive)	> 100 µM (inactive)	35.6 µM (inactive)	29 µM (inactive)	20 µM (inactive)	31.4 µM (inactive)	> 100 µM (inactive)	60.4 µM (inactive)	> 100 µM (inactive)	42.9 µM (inactive)	> 100 µM (inactive)	> 100 µM (inactive)	2.72 µM (inactive)	> 100 µM (inactive)	> 100 µM (inactive)	31.4 µM (inactive)	78.2
O=c1c2cc([N+](=O)[O-])ccc2n2n1CCCC2	> 100 µM (inactive)	> 100 µM (inactive)	> 100 µM (inactive)	> 100 µM (inactive)	> 100 µM (inactive)	> 100 µM (inactive)	> 100 µM (inactive)	> 100 µM (inactive)	> 100 µM (inactive)	> 100 µM (inactive)	> 100 µM (inactive)	> 100 µM (inactive)	> 100 µM (inactive)	> 100 µM (inactive)	> 100 µM (inactive)	> 100 µM (inactive)	> 100 µM (inactive)	> 100 µM (inactive)	> 100 µM (inactive)	> 100
C=CCNC(=O)NC(=O)CSC1=NC(=O)C2(NN1)c1ccccc1-c1ccccc12	> 10 µM (inactive)	> 10 µM (inactive)	> 10 µM (inactive)	> 10 µM (inactive)	> 10 µM (inactive)	> 10 µM (inactive)	> 10 µM (inactive)	> 10 µM (inactive)	> 10 µM (inactive)	> 10 µM (inactive)	> 10 µM (inactive)	> 10 µM (inactive)	> 10 µM (inactive)	> 10 µM (inactive)	> 10 µM (inactive)	> 10 µM (inactive)	> 10 µM (inactive)	> 10 µM (inactive)	> 10 µM (inactive)	> 10
CCOC1CN=C(Nc2cccc3ccccc23)S1 (stereo not given)	> 10 µM (inactive)	> 10 µM (inactive)	> 10 µM (inactive)	> 10 µM (inactive)	> 10 µM (inactive)	> 10 µM (inactive)	> 10 µM (inactive)	> 10 µM (inactive)	> 10 µM (inactive)	> 10 µM (inactive)	> 10 µM (inactive)	> 10 µM (inactive)	> 10 µM (inactive)	> 10 µM (inactive)	> 10 µM (inactive)	> 10 µM (inactive)	> 10 µM (inactive)	> 10 µM (inactive)	> 10 µM (inactive)	> 10
CCN(CC)C1CCC(C2c3cc4c(cc3OC(N3CCOCC3)C2C)OCO4)CC1 (stereo not given)	18.4 µM (inactive)	16.1 µM (inactive)	6.81 µM (inactive)	12.4 µM (inactive)	13.7 µM (inactive)	22.8 µM (inactive)	> 100 µM (inactive)	4.09 µM (inactive)	33.7 µM (inactive)	36.4 µM (inactive)	22.3 µM (inactive)	16.3 µM (inactive)	23.4 µM (inactive)	7.98 µM (inactive)	10.1 µM (inactive)	61.8 µM (inactive)	10.4 µM (inactive)	4.28 µM (inactive)	10.7 µM (inactive)	12.1
CCOC1NC(=O)Oc2ccccc21 (stereo not given)	> 100 µM (inactive)	> 100 µM (inactive)	> 100 µM (inactive)	> 100 µM (inactive)	> 100 µM (inactive)	> 100 µM (inactive)	> 100 µM (inactive)	> 100 µM (inactive)	> 100 µM (inactive)	> 100 µM (inactive)	> 100 µM (inactive)	> 100 µM (inactive)	> 100 µM (inactive)	> 100 µM (inactive)	> 100 µM (inactive)	> 100 µM (inactive)	> 100 µM (inactive)	> 100 µM (inactive)	> 100 µM (inactive)	> 100
O=[N+]([O-])c1cccc2nc3ccccc3c(NCCCN3CCCCC3)c12	0.0219 µM (active)	< 0.01 µM (active)	0.0106 µM (active)	< 0.01 µM (active)	0.0116 µM (active)	< 0.01 µM (active)	0.0191 µM (active)	< 0.01 µM (active)	< 0.01 µM (active)	0.0208 µM (active)	0.0163 µM (active)	0.0417 µM (active)	< 0.01 µM (active)	< 0.0107 µM (active)	< 0.01 µM (active)	0.0205 µM (active)	< 0.01 µM (active)	0.0102 µM (active)	0.0101 µM (active)	0.0158
O=C(O)c1cc2cc(c1)/N=C/c1ccccc1OCc1cccc(n1)COc1ccccc1/C=N/2	> 25 µM (inactive)	9.68 µM (inactive)	3.78 µM (inactive)	> 25 µM (inactive)	11.1 µM (inactive)	> 25 µM (inactive)	13.2 µM (inactive)	6.73 µM (inactive)	10.6 µM (inactive)	> 25 µM (inactive)	8.17 µM (inactive)	23.3 µM (inactive)	6.38 µM (inactive)	> 25 µM (inactive)	20 µM (inactive)	> 25 µM (inactive)	24 µM (inactive)	4.53 µM (inactive)	> 25 µM (inactive)	8.45
O=c1[nH]c(=S)[nH]c(-c2ccccc2)c1Cc1c(O)ccc2ccccc12 [CAMBINOL]	27.2 µM (inactive)	42.8 µM (inactive)	31 µM (inactive)	8.89 µM (inactive)	27.9 µM (inactive)	26.1 µM (inactive)	24.7 µM (inactive)	26.1 µM (inactive)	34.9 µM (inactive)	33.4 µM (inactive)	25.6 µM (inactive)	39.2 µM (inactive)	34.8 µM (inactive)	21.5 µM (inactive)	26.1 µM (inactive)	25.6 µM (inactive)	37.2 µM (inactive)	27.9 µM (inactive)	29.8 µM (inactive)	34.4
